Results published in patent US7582645B2, “Pyrimidine derivatives for treatment of hyperproliferative disorders” (Bayer Pharmaceuticals Corporation, priority 2003, dated 2009).
Structures can show the parent of a compound that is named as a salt.

These molecules were tested on HCT116 cells (assay: HCT116 cytotoxic activity assay (Alamar Blue, 72 h)). Settings: Homo sapiens, HCT-116, 72 h compound exposure, greater than 500 nM but less than or equal to 2 μM.
Type: cell-based
Experimental: Representative compounds of this invention were tested for cytotoxicity using the above-described assay procedure with the following results: […]

SMILES | IC50
Nc1nc(Nc2ccc(Oc3ccnc(N(N)Cc4ccccc4)c3)cc2)cc(-c2ccccc2)n1 [Example 131, N4*-(4-{[2-(1-benzylhydrazino)pyridin-4-yl]oxy}phenyl)-6-phenylpyrimidine-2,4-diamine] | 500 to 2000 nM
CN1CCN(c2cc(Oc3ccc(Nc4cc(-c5ccccc5)nc(N)n4)cc3)ccn2)CC1 [Example 135, N4*-(4-{[2-(4-methylpiperazin-1-yl)pyridin-4-yl]oxy}phenyl)-6-phenylpyrimidine-2,4-diamine] | 500 to 2000 nM
COCCN1CCN(c2cc(Oc3ccc(Nc4cc(-c5ccccc5)nc(N)n4)cc3)ccn2)CC1 [Example 136, N4*-[4-({2-[4-(2-methoxyethyl)piperazin-1-yl]pyridin-4-yl}oxy)phenyl]-6-phenylpyrimidine-2,4-diamine] | 500 to 2000 nM
CN(C)CCNc1cc(Oc2ccc(Nc3cc(-c4ccccc4)nc(N)n3)cc2)ccn1 [Example 138, N4*-{4-[(2-{[2-(dimethylamino)ethyl]amino}pyridin-4-yl)oxy]phenyl}-6-phenylpyrimidine-2,4-diamine] | 500 to 2000 nM
CCN(CC)CCCNc1cc(Oc2ccc(Nc3cc(-c4ccccc4)nc(N)n3)cc2)ccn1 [Example 141, N4*-{4-[(2-{[3-(diethylamino)propyl]amino}pyridin-4-yl)oxy]phenyl}-6-phenylpyrimidine-2,4-diamine] | 500 to 2000 nM
CN(C)[C@H]1CCN(c2cc(Oc3ccc(Nc4cc(-c5ccccc5)nc(N)n4)cc3)ccn2)C1 [Example 144, N4*-[4-({2-[(3S)-3-(dimethylamino)pyrrolidin-1-yl]pyridin-4-yl}oxy)phenyl]-6-phenylpyrimidine-2,4-diamine] | 500 to 2000 nM
Nc1nc(Nc2ccc(Oc3ccnc(C(F)(F)F)c3)cc2)cc(-c2ccc(NC(=O)CCC(=O)O)cc2)n1 [Example 148, 4-[(4-{2-amino-6-[(4-{[2-(trifluoromethyl)pyridin-4-yl]oxy}phenyl)amino]pyrimidin-4-yl}phenyl)amino]-4-oxobutanoic acid] | 500 to 2000 nM

Same assay, conditions: Homo sapiens, HCT-116, 72 h compound exposure, greater than 2 μM

SMILES | IC50
COC[C@H]1CCCN1c1cc(Oc2cccc(Nc3cc(-c4ccccc4)nc(N)n3)c2)ccn1 [Example 147, N4*-[3-({2-[(2R)-2-(methoxymethyl)pyrrolidin-1-yl]pyridin-4-yl}oxy)phenyl]-6-phenylpyrimidine-2,4-diamine] | > 2000 nM

Same assay, conditions: Homo sapiens, HCT-116, 72 h compound exposure, less than or equal to 500 nM

SMILES | IC50
COC[C@H]1CCCN1c1cc(Oc2ccc(Nc3cc(-c4ccccc4)nc(N)n3)cc2)ccn1 [Example 133, N4*-[4-({2-[(2R)-2-(methoxymethyl)pyrrolidin-1-yl]pyridin-4-yl}oxy)phenyl]-6-phenylpyrimidine-2,4-diamine] | ≤ 500 nM
Nc1nc(Nc2ccc(Oc3ccnc(N4CCOCC4)c3)cc2)cc(-c2ccccc2)n1 [Example 134, N4*-{4-[(2-morpholin-4-ylpyridin-4-yl)oxy]phenyl}-6-phenylpyrimidine-2,4-diamine] | ≤ 500 nM
COCCN(C)c1cc(Oc2ccc(Nc3cc(-c4ccccc4)nc(N)n3)cc2)ccn1 [Example 137, N4*-[4-({2-[(2-methoxyethyl)(methyl)amino]pyridin-4-yl}oxy)phenyl]-6-phenylpyrimidine-2,4-diamine] | ≤ 500 nM
Nc1nc(Nc2ccc(Oc3ccnc(N4CCCCC4)c3)cc2)cc(-c2ccccc2)n1 [Example 139, 6-phenyl-N4*-{4-[(2-piperidin-1-ylpyridin-4-yl)oxy]phenyl}pyrimidine-2,4-diamine] | ≤ 500 nM
COCCN(CCOC)c1cc(Oc2ccc(Nc3cc(-c4ccccc4)nc(N)n3)cc2)ccn1 [Example 140, N4*-[4-({2-[bis(2-methoxyethyl)amino]pyridin-4-yl}oxy)phenyl]-6-phenylpyrimidine-2,4-diamine] | ≤ 500 nM
Nc1nc(Nc2ccc(Oc3ccnc(NCCCN4CCOCC4)c3)cc2)cc(-c2ccccc2)n1 [Example 142, N4*-[4-({2-[(3-morpholin-4-ylpropyl)amino]pyridin-4-yl}oxy)phenyl]-6-phenylpyrimidine-2,4-diamine] | ≤ 500 nM
COc1cc(-c2cc(Nc3ccc(Oc4ccnc(N5CCOCC5)c4)cc3)nc(N)n2)ccc1O [Example 143, 4-[2-amino-6-({4-[(2-morpholin-4-ylpyridin-4-yl)oxy]phenyl}amino)pyrimidin-4-yl]-2-methoxyphenol] | ≤ 500 nM
Nc1nc(Nc2ccc(Oc3ccnc(N4CCC[C@H]4CO)c3)cc2)cc(-c2ccccc2)n1 [Example 145, [(2S)-1-(4-{4-[(2-amino-6-phenylpyrimidin-4-yl)amino]phenoxy}pyridin-2-yl)pyrrolidin-2-yl]methanol] | ≤ 500 nM
Nc1nc(Nc2ccc(Oc3ccnc(N4CC[C@@H](O)C4)c3)cc2)cc(-c2ccccc2)n1 [Example 146, (3R)-1-(4-{4-[(2-amino-6-phenylpyrimidin-4-yl)amino]phenoxy}pyridin-2-yl)pyrrolidin-3-ol] | ≤ 500 nM
COc1cc(-c2cc(Nc3ccc(Oc4ccnc(C(F)(F)F)c4)cc3)nc(N)n2)ccc1OC(=O)CNC(=O)OC(C)(C)C [Example 149, 4-{2-amino-6-[(4-{[2-(trifluoromethyl)pyridin-4-yl]oxy}phenyl)amino]pyrimidin-4-yl}-2-methoxyphenyl N-(tert-butoxycarbonyl)glycinate] | ≤ 500 nM
COc1cc(-c2cc(Nc3ccc(Oc4ccnc(C(F)(F)F)c4)cc3)nc(N)n2)ccc1OC(=O)CN [Example 150, 4-{2-amino-6-[(4-{[2-(trifluoromethyl)pyridin-4-yl]oxy}phenyl)amino]pyrimidin-4-yl}-2-methoxyphenyl glycinate hydrochloride] | ≤ 500 nM
COc1cc(-c2cc(Nc3ccc(Oc4ccnc(C(F)(F)F)c4)cc3)nc(N)n2)ccc1N [Example 153, 6-(4-amino-3-methoxyphenyl)-N4*-(4-{[2-(trifluoromethyl)pyridin-4-yl]oxy}phenyl) pyrimidine-2,4-diamine] | ≤ 500 nM
Cc1ccccc1-c1cc(Nc2ccc(Oc3ccnc(CN)c3)cc2)nc(N)n1 [Example 154, N4*-(4-{[2-(aminomethyl)pyridin-4-yl]oxy}phenyl)-6-(2-methylphenyl) pyrimidine-2,4-diamine] | ≤ 500 nM
Nc1nc(Nc2ccc(Oc3ccnc(C(F)(F)F)c3)cc2)cc(-c2ccccc2C(F)(F)F)n1 [Example 155, 6-[2-(trifluoromethyl)phenyl]-N4*-(4-{[2-(trifluoromethyl)pyridin-4-yl]oxy}phenyl)pyrimidine-2,4-diamine] | ≤ 500 nM
CCc1ccccc1-c1cc(Nc2ccc(Oc3ccnc(C(F)(F)F)c3)cc2)nc(N)n1 [Example 156, 6-(2-ethylphenyl)-N4*-(4-{[2-(trifluoromethyl)pyridin-4-yl]oxy}phenyl) pyrimidine-2,4-diamine] | ≤ 500 nM
CCOc1ccccc1-c1cc(Nc2ccc(Oc3ccnc(C(F)(F)F)c3)cc2)nc(N)n1 [Example 157, 6-(2-ethoxyphenyl)-N4*-(4-{[2-(trifluoromethyl)pyridin-4-yl]oxy}phenyl) pyrimidine-2,4-diamine] | ≤ 500 nM
Cc1ccc(F)c(-c2cc(Nc3ccc(Oc4ccnc(C(F)(F)F)c4)cc3)nc(N)n2)c1 [Example 158, 6-(2-fluoro-5-methylphenyl)-N4*-(4-{[2-(trifluoromethyl)pyridin-4-yl]oxy}phenyl)pyrimidine-2,4-diamine] | ≤ 500 nM
Nc1nc(Nc2ccc(Oc3ccnc(C(F)(F)F)c3)cc2)cc(-c2cccc(F)c2F)n1 [Example 159, 6-(2,3-difluorophenyl)-N4*-(4-{[2-(trifluoromethyl)pyridin-4-yl]oxy}phenyl)pyrimidine-2,4-diamine] | ≤ 500 nM
